Data: publication PMC4058678 (The Biochemical journal, 2009)
pIC50: −log10 of the molar value. Like-named read-outs stand apart in the source and are kept apart here.

Experiments:
myeloperoxidase (MPO) [1] = target: T1, myeloperoxidase (MPO) (Homo sapiens, UniProt P05164); test: HOCl production by isolated MPO-H2O2-Cl− system; assay type: biochemical
myeloperoxidase (MPO) [2] = target: T1, myeloperoxidase (MPO); test: HOCl production by isolated MPO-H2O2-Cl− system; assay type: biochemical; remark: listed apart in the source

T1 sequence (P05164 165-273): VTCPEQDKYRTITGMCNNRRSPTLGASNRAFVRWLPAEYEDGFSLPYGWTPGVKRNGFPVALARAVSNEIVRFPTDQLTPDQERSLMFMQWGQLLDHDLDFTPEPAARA
T1 sequence (P05164 279-745): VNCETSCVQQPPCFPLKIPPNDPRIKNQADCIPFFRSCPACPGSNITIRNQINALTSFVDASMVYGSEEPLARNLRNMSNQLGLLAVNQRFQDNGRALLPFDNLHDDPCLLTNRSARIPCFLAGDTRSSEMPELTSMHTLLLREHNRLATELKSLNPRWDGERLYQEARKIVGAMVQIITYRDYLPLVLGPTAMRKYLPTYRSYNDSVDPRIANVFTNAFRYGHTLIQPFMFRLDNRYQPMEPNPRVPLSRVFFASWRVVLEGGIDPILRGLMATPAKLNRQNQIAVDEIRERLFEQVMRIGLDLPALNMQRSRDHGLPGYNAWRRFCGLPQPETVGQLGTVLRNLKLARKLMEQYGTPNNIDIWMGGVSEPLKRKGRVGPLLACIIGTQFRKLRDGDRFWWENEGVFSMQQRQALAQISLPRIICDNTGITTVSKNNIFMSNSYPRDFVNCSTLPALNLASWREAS

| Structure (SMILES) | pIC50 (myeloperoxidase (MPO) [1]) | pIC50 (myeloperoxidase (MPO) [2]) |
| --- | --- | --- |
| CC1(C)CC(N)C(C)(C)N1[O] (centres unmarked) [3-AminoPROXYL, 3-amino-2,2,5,5-tetramethylpyrrolidin-1-yloxyl] | 5.57 |  |
| CC1(C)CC(N)CC(C)(C)N1[O] [4-AminoTEMPO, 4-amino-2,2,6,6-tetramethylpiperidin-1-yloxyl] |  | 5.92 |
